Source: patent US8629147B2, “Heterocyclic compounds useful in the treatment of neoplastic diseases, inflammatory disorders and immunomodulatory disorders” (ChemBridge Corporation, priority 2005, dated 2014)

Key:
[1] = test system: NCI-H929 human plasmacytoma cells; assay: CellTiter-Glo luminescent cell viability assay, NCI-H929; type: cell-based; conditions: 48 hours, 20 to 0.1 μM
Procedure: (§1) Cell viability of either MCF7 human breast tumor cells (American Type Culture Collection catalog #HTB 22) or NCI-H929 human plasmacytoma cells (ATCC catalog #CRL-9068) was assessed using the Promega CellTiter-Glo luminescent cell viability assay according to manufacturer's instructions. In brief, cells were plated at 10,000 cells per well in a clear bottom white 96 well microtiter plate (Costar catalog #3604) in 100 μL of cell growth medium. Compounds were then added to the cells to give final concentrations of compound ranging from 20 to 0.1 μM. Cells were incubated 48 hours after which 100 μL per well of celltiter-glo reagent was added and luminescence was measured in a BMG polarstar plate luminometer. A plot of counts per minute versus log concentration of compounds was fitted to a sigmoidal dose response curve using Graphpad Prism software to generate IC50 values.

[2] = target: T1, human IGF1R kinase domain (Homo sapiens, UniProt P08069); assay: IGF1R tyrosine phosphorylation inhibition, Alphascreen phosphotyrosine PT66 assay; type: biochemical; conditions: recombinant kinase domain, 1 hour co-incubation, 20 to 0.1 μM
T1 construct: human IGF1R precursor protein corresponding to the amino acids positions 974 through 1293; 6xHis; made in house; host or cells: SF9 insect cells, recombinant baculovirus (Bac-to-Bac System)
Procedure: Inhibition of IGF1R tyrosine phosphorylation was measured in the Alphascreen phosphotyrosine PT66 assay kit (Perkin Elmer Life sciences, Catalog number 6760602) according to the manufacturer's instructions. As a source of enzymatically active IGF1r kinase for this assay, SF9 insect cells were infected with recombinant baculovirus (Bac-to-Bac System, Invitrogen, Carlsbad, Calif.) encoding 6×His-tagged kinase domain portion of human IGF1R precursor protein corresponding to the amino acids positions 974 through 1293 (Abbott et al., 1992, J. Biol. Chem. 267:10759-10763) and recombinant kinase protein was purified to homogeneity using two-step chromatography on immobilized Ni^2+ resin (Ni-NTA) and ion-exchange Q-Sepharose column. Biotinylated poly glu-tyr 4:1 (CIS bio-international, catalog number 61GT0BLA) was used for the kinase substrate. Compounds were serially diluted to give a concentration range from 20 to 0.1 μM and co-incubated with IGF1r kinase, biotinylated peptide substrate and alphascreen components for 1 hour and then read in a Perkin-Elmer alphafusion plate reader. A plot of counts per minute versus log concentration of compounds was fitted to a sigmoidal dose response curve using Graphpad Prism software to generate IC50 values (see FIG. 1 for an example).

[3] = test system: MCF7 human breast tumor cells; assay: CellTiter-Glo luminescent cell viability assay, MCF7; type: cell-based; conditions: 48 hours, 20 to 0.1 μM
Procedure: as §1

T1 sequence (P08069 974-1293): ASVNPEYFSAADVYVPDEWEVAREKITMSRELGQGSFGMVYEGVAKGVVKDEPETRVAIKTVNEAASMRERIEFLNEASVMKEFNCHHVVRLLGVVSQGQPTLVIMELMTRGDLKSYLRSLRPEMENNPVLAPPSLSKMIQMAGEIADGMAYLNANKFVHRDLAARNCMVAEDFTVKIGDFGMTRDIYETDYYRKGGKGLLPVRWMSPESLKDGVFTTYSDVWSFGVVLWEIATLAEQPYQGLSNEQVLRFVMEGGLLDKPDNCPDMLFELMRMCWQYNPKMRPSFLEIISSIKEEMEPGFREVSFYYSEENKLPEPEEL

Structure (SMILES) | IC50 [1] [µM] | IC50 [2] [µM] | IC50 [3] [µM]
CN1CCN(CCc2ccc(NC(=O)c3ccc4nc(-c5nc6ccccc6[nH]5)[nH]c4c3)cc2)CC1 | 5 to 10 | ≤ 5 | > 25
COc1ccc2c(c1)OCc1cnc(-n3cc(C(=O)NCCCc4ccncc4)c(N)n3)nc1-2 | 10 to 15 | 10 to 15 | 10 to 15
CN1CCN(c2ccc3nc(-c4cc(-c5cccnc5)ccc4O)[nH]c3c2)CC1 | 10 to 15 | ≤ 5 | 10 to 15
CN1CCN(c2ccc3nc(-c4cc(-c5ccccc5)ccc4O)[nH]c3c2)CC1 | 10 to 15 | ≤ 5 | > 25
CC1CCN(CCc2ccc(NC(=O)c3cn(-c4cccc(-c5ccc(N(C)C)cc5)n4)nc3N)cc2)CC1 | 5 to 10 | ≤ 5 | 5 to 10
CN1CCN(c2ccc3nc(-c4nc5ccccc5[nH]4)[nH]c3c2)CC1 | 10 to 15 | ≤ 5 | 10 to 15

Other lines, results leading:

IC50 [1] [µM] | IC50 [2] [µM] | IC50 [3] [µM] | Structure (SMILES)
5 to 10 | ≤ 5 | 10 to 15 | COc1ccc2c(c1)CCc1cnc(-n3cc(-c4nc5cc(N6CCN(C)CC6)ccc5[nH]4)c(N)n3)nc1-2
5 to 10 | ≤ 5 | 5 to 10 | COc1ccc2c(c1)CCc1cnc(-n3cc(C(=O)NCc4nc5ccccc5[nH]4)c(N)n3)nc1-2
≤ 5 | ≤ 5 | 5 to 10 | COc1ncccc1-c1ccc(O)c(-c2nc3ccc(C(=O)Nc4ccc(CCN5CCCC6(CCCN(C)C6)C5)cc4)cc3[nH]2)c1 (stereo not drawn)
≤ 5 | ≤ 5 | 10 to 15 | CN1CCCC2(CCCN(CCc3ccc(NC(=O)c4ccc5nc(-c6cc(-c7cccnc7O)ccc6O)[nH]c5c4)cc3)C2)C1 (stereo not drawn) [drawing 1788]
